Experimental data: ChEMBL document CHEMBL4480451, “Novel nonapeptide GLP (28-36) amide derivatives with improved hypoglycemic and body weight lowering effects” (2019)
Calls of active or inactive are those of the source. The calls are words filed in the database; no cut-off is given here.

Columns and labels:
INS1 [1] = assay: Cytoprotective activity against H2O2-induced oxidative stress-mediated cell death in rat INS-1 cells assessed as reduction in cell viability at 10 uM after 24 hrs by MTT assay (reference value: 37%); format: functional
Mus musculus [2] = assay: Antiobesity activity in C57BL/6J mouse model of diet-induced obesity assessed as reduction in body weight at 1 umol/kg, ip qd for 4 weeks; format: functional, organism-based
Mus musculus [3] = assay: Antiobesity activity in C57BL/6J mouse model of diet-induced obesity assessed as reduction in circulating leptin level at 1 umol/kg, ip qd for 4 weeks; format: functional, organism-based
INS1 [4] = assay: Cytoprotective activity against STZ-mediated cell death in rat INS-1 cells assessed as reduction in cell viability at 10 uM after 24 hrs by MTT assay (reference value: 50%); format: functional
Mus musculus [5] = assay: Hypoglycemic activity in ICR mouse assessed as plasma glucose level at 1 umol/kg, ip pretreated 30 mins prior to glucose challenge and measured at 15 mins post challenge by intraperitoneal glucose tolerance test (reference value: 15.3 +/- 1.2 mmol/L); format: functional
Mus musculus [6] = assay: Antiobesity activity in C57BL/6J mouse model of diet-induced obesity assessed as reduction in ALT levels at 1 umol/kg, ip qd for 4 weeks; format: functional, organism-based
Mus musculus [7] = assay: Antiobesity activity in C57BL/6J mouse model of diet-induced obesity assessed as reduction in serum total cholesterol levels at 1 umol/kg, ip qd for 4 weeks; format: functional, organism-based
INS1 [8] = assay: Cytoprotective activity against STZ-mediated cell death in rat INS-1 cells assessed as reduction in apoptotic cells at 0.1 to 10 uM after 24 hrs by Annexin V/propidium iodide staining-based flow cytometric analysis; format: functional
Mus musculus [9] = assay: Antiobesity activity in C57BL/6J mouse model of diet-induced obesity assessed as reduction in triglyceride levels at 1 umol/kg, ip qd for 4 weeks; format: functional, organism-based
Mus musculus [10] = assay: Antiobesity activity in C57BL/6J mouse model of diet-induced obesity assessed as reduction in circulating adiponectin level at 1 umol/kg, ip qd for 4 weeks; format: functional, organism-based
Mus musculus [11] = assay: Antiobesity activity in C57BL/6J mouse model of diet-induced obesity assessed as increase in small brown adipocytes at 1 umol/kg, ip qd for 4 weeks by haematoxylin and eosin staining-based assay; format: functional, organism-based
Mus musculus [12] = assay: Antidiabetic activity in STZ-induced diabetic ICR mouse model assessed as fasting blood glucose level at 1 umol/kg, ip for 5 consecutive days by glucometery (reference value: 17.7 +/- 1.1 mM); format: functional
Mus musculus [13] = assay: Antidiabetic activity in STZ-induced diabetic ICR mouse model assessed as reduction in HbA1c level at 0.1 to 10 umol/kg, ip for 5 consecutive days; format: functional, organism-based
INS1 [14] = assay: Cytoprotective activity against H2O2-induced oxidative stress-mediated cell death in rat INS-1 cells assessed as reduction in apoptotic cells at 0.1 to 10 uM after 24 hrs by Annexin V/propidium iodide staining-based flow cytometric analysis; format: functional
Mus musculus [15] = assay: Hypoglycemic activity in ICR mouse assessed as reduction in plasma glucose AUC (0 to 120 mins) at 1 umol/kg, ip pretreated 30 mins prior to glucose challenge […] by intraperitoneal glucose tolerance test; format: functional, organism-based
Mus musculus [16] = assay: Antidiabetic activity in STZ-induced diabetic ICR mouse model assessed as fasting blood glucose level at 10 umol/kg, ip for 5 consecutive days by glucometery (reference value: 17.7 +/- 1.1 mM); format: functional
Mus musculus [17] = assay: Antiobesity activity in C57BL/6J mouse model of diet-induced obesity assessed as reduction in AST levels at 1 umol/kg, ip qd for 4 weeks; format: functional, organism-based
INS1 [18] = assay: Cytoprotective activity against glucolipotoxicity-mediated cell death in rat INS-1 cells assessed as reduction in cell viability at 10 uM after 24 hrs by MTT assay (reference value: 31%); format: functional
INS1 [19] = assay: Cytoprotective activity against STZ-mediated cell death in rat INS-1 cells assessed as reduction in cell viability at 1 uM after 24 hrs by MTT assay (reference value: 50%); format: functional
Mus musculus [20] = assay: Antiobesity activity in C57BL/6J mouse model of diet-induced obesity assessed as reduction in cumulative food intake at 1 umol/kg, ip qd for 4 weeks relative to control; format: functional; design: scale not given: the % may be the effect or the level left
Mus musculus [21] = assay: Antiobesity activity in C57BL/6J mouse model of diet-induced obesity assessed as reduction in LDL/HDL levels at 1 umol/kg, ip qd for 4 weeks; format: functional, organism-based
INS1 [22] = assay: Cytoprotective activity against glucolipotoxicity-mediated cell death in rat INS-1 cells assessed as reduction in apoptotic cells at 0.1 to 10 uM after 24 hrs by Annexin V/propidium iodide staining-based flow cytometric analysis; format: functional
Mus musculus [23] = assay: Antidiabetic activity in STZ-induced diabetic ICR mouse model assessed as fasting blood glucose level at 0.1 umol/kg, ip for 5 consecutive days by glucometery (reference value: 17.7 +/- 1.1 mM); format: functional

With H-FIAWLVKGRKKK-NH2 the Activity (INS1 [1]) was 17%, the Activity (Mus musculus [2]) was “Active” and the Activity (Mus musculus [3]) was “inactive”. For the same substance, the Activity (INS1 [4]) was 29%, the Activity (Mus musculus [5]) was 10.8 mmol/L and the Activity (Mus musculus [6]) was “Active”. For the same substance, the Activity (Mus musculus [7]) was “Active”, the Activity (INS1 [8]) was “Active” and the Activity (Mus musculus [9]) was “Active”. For the same substance, the Activity (Mus musculus [10]) was “inactive”, the Activity (Mus musculus [11]) was “Active” and the Activity (Mus musculus [12]) was 14.9 mM. The Activity (Mus musculus [13]) was “inactive”, the Activity (INS1 [14]) was “Active” and the Activity (Mus musculus [15]) was “Active”. For the same substance, the Activity (Mus musculus [16]) was 15.03 mM, the Activity (Mus musculus [17]) was “Active” and the Activity (INS1 [18]) was 21%. For the same substance, the Activity (INS1 [19]) was 36%, the Activity (Mus musculus [20]) was 12.7% and the Activity (Mus musculus [21]) was “inactive”. For the same substance, the Activity (INS1 [22]) was “Active” and the Activity (Mus musculus [23]) was 16.5 mM.
In the case of H-FIAWLVKGRKKKKKK-NH2, the Activity (Mus musculus [5]) is reported as 11.9 mmol/L and the Activity (Mus musculus [15]) is reported as “Active”.
